Data published in US12156938B2, “Liposomes for targeting tumor-associated macrophages” (Universiteit Twente, priority 2018, dated 2024).

Columns and labels:
[1] = system: 4T1 breast tumor model; experiment: Effect of AS-loaded liposomes on pre-metastatic niche in liver and lungs (qPCR); assay type: in vivo, mice; settings: compared to the vehicle group
Description: (§1) For efficacy analysis of AS1517499-loaded liposomes, 1×10^5 Luc-cells were injected into the mammary fat pad, and tumors were allowed to develop to a size of 100 mm^3. Thereupon, treatment with AS1517499-loaded liposomes (8 mg/kg, intravenous administrations, twice a week) was started. Before sacrifice, mice were injected with 2.5 mg of D-Luciferin (Perkin-Elmer, Waltham, MA) and were imaged after 15 minutes to detect bioluminescence signal using a Pearl Trilogy imager (LICOR).
TAMs display a number of pro-tumoral functions, including extracellular matrix remodeling, neoangiogenesis, suppression of adaptive immunity and facilitate tumor metastasis (Allavena et al. 2012 Exp. Immunol. 167, 195-205, doi:10.1111/j.1365-2249.2011.04515.x). […] As most of cancer related mortalities occur due to metastasis, the effect of AS-loaded liposomes on the pre-metastatic niche in the organs (liver and lungs) of the 4T1 breast tumor was examined using qPCR analysis (FIG. 9).

[2] = system: 4T1 orthotopic tumor model; settings: free AS1517499, 20 mg/kg; i.p route; cited from earlier work
[3] = system: 4T1 breast tumor model; experiment: Efficacy of AS1517499-loaded liposomes on tumor growth in the 4T1 breast tumor model; assay type: in vivo, mice; settings: 8 mg/kg, intravenous route, twice weekly
Description: as §1
Mouse 4T1-Luc cells were injected orthotopic into the mammary fat pad of BalbC mice. The mice were randomly assigned into five groups: a) treated with PBS as the vehicle group, b) treated with free AS, c) treated with AS-HSPC liposomes, d) treated with AS-PAzPC liposomes, e) treated with empty PAzPC liposomes. […] Since the loading of the AS1517499 was little in the liposomes, 8 mg/kg was injected, intravenous route, twice weekly.

[4] = system: THP-1 macrophages; experiment: Effect of MTP-PE and IFNγ on differentiated THP-1 macrophages (qPCR); assay type: cell-based, human; settings: for DC-SIGN (M2 marker) expression in TAMs: second experiment, with or without IFNγ
Description: (§2) Macrophages were differentiated as reported in [7]. Briefly, THP-1 cells were treated for 24 hours with 100 ng/ml of phorbol 12-myristate 13-acetate (PMA, Cayman Chemicals) to allow their attachment. The medium was replaced by medium containing 20 ng/ml IL-4 and IL-13 (Peprotech, London, UK) for M2 differentiation, or 20 ng/ml IFNγ (Peprotech) and 100 ng/ml LPS (Sigma Aldrich) for M1 differentiation. Cells were incubated with cytokines for 24 hours (gene expression on differentiation), and 72 hours (liposome uptake experiments). BMDMs were plated overnight with a density of 50,000 cells/ml. After 24 hours, medium was aspirated. Cells were incubated for 24 hours in complete RPMI medium containing IL-4 and IL-13 at 10 ng/ml (M2 differentiation) or LPS and IFN-γ at 100 and 10 ng/ml. In case of RAW264.7 cells, M1 macrophages were differentiated using 10 ng-mL murine recombinant IFNγ and 10 ng-mL LPS. M2 macrophages were differentiated using 10 ng-mL murine IL-4 and IL-13.
(§3) 0.5×10^6 RAW264.7/THP-1 cells were plated in 12-well plates, if applicable treated with respective cytokines for differentiation, and activated using PMA. Cells were then incubated with different liposomal preparations (50 μM) or differentiation cytokines for 24 hours. BMDM were differentiated as described above. After differentiation, cells were washed with PBS and then lysed using lysis buffer and total RNA was isolated using SV Total RNA Isolation System (Promega, Madison, WI). cDNA was prepared by using iScript cDNA synthesis kit (Bio-Rad, Hercules, CA) and qRT-PCR was performed with 10 ng of cDNA per reaction mixture using SYBR green assay (Bioline, London, UK). Reactions were measured using the CFX384 Real-Time PCR detection system (Bio-Rad). The threshold cycles (Ct) values were calculated and relative gene expression (ddCt method) was analyzed after normalization using the Rsp18 (THP-1) or Gapdh (RAW264.7/BMDM) house-keeping gene.
Next, the effect of MTP-PE on differentiated human macrophages THP-1 was investigated.
(§4) (IL-1β and TNFα) in TAMs, which indicates the switch of M2 macrophages toward M1 phenotype (FIG. 12A). In the second experiment, IFNγ, a well-known inducer of M1 macrophage differentiation, was tested (Sica et al. 2012 J. Clin. Invest. 122, 787-795, doi:10.1172/JCI59643), and MTP-PE to understand the role of IFNγ potentiation effect on macrophage reprogramming.

[5] = system: RAW 264.7 macrophages; experiment: Effect of MTP-PE on differentiated RAW 264.7 macrophages (qPCR); assay type: cell-based, murine
Description: as §2, §3
To study the effect of MTP-PE, murine macrophages RAW 264.7 were first differentiated with IFNγ and LPS for M1 and with IL-4 and IL-13 for M2 macrophages (TAM). […]

[6] = system: THP-1 macrophages; experiment: Cell growth after 24-hour treatment of MTP-PE and IFNγ; assay type: cell-based, human; settings: IFNγ 20 ng/ml
Description: FIG. 12. In vitro effects of MTP-PE and IFNγ in differentiated THP-1 macrophages. qPCR analysis of macrophage differentiation with MTP-PE with or without IFNγ for M1 markers IL-1β, IL-6, TNFα and M2 markers for DC-SIGN. […] B) The cell growth was evaluated after 24-hour treatment of MTP-PE and IFNγ C) MTP-PE, in synergy with IFNγ activates tumoricidal properties by inducing more M1 markers. Bars represent mean+SEM, n=3 *p<0.05, **p<0.005, ***p<0.001.
as §4

[7] = increasing concentrations of MTP-PE

Molecule: NC(=O)c1cnc(NCCc2ccc(O)c(Cl)c2)nc1NCc1ccccc1 [AS1517499]
- CD31, collagen I, periostin, fibronectin expression in liver samples [1]: no statistically significant difference
- Premetastatic niche in liver [2]: reduced premetastatic niche in liver
- Tumor volume compared to the vehicle group [2]: inhibited tumor volume significantly
- Tumor volume/weight compared to the vehicle group [3]: no difference in tumor volume/weight

Molecule: muramyl tripeptide-phosphatidyl ethanolamine [MTP-PE]
- DC-SIGN gene expression (M2 differentiation) ([4]; 1 and 10 ug/ml, first experiment): reduced expression of DC-SIGN gene
- M1 type differentiation markers in presence of M1 cytokines ([4]; data not shown): increased the M1 type differentiation markers
- M1 cytokine markers (IL-1β and TNFα) in TAMs ([4]; first experiment): induced M1 cytokine markers
- DC-SIGN (M2 marker) expression in TAMs [4]: reduced the expression of DC-SIGN
- Cytokines (IL-1β, IL-6, TNFα) expression in M1 differentiation ([5]; MTP-PE dose-dependent conc., in presence of IFNγ): increasing the cytokines (IL-1β, IL-6, TNFα) expression
- M2 macrophage markers (MRC-1, ARG-1) in M2 macrophages [5, 7]: did not show any inhibition
- TNFα expression in M2-type macrophages [5, 7]: increased TNFα expression
- Cell growth [6]: no direct effect on the cell growth

B1: IFNγ: cytokine that activates inflammatory M1-type macrophages (protein, UniProt P01579 24-161, looked up)
Interferon gamma: QDPYVKEAENLKKYFNAGHSDVADNGTLFLGILKNWKEESDRKIMQSQIVSFYFKLFKNFKDDQSIQKSVETIKEDMNVKFFNSNKKKRDDFEKLTNYSVTDLNVQRKAIHELIQVMAELSPAAKTGKRKRSQMLFRG
- DC-SIGN (M2 marker) expression in TAMs [4]: increased expression of DC-SIGN
- Cell growth [6]: reduced the cell growth significantly
